Test results reported in paper PMC11600510 (Journal of Chemical Information and Modeling, 2024).

What was measured:
[1] = target: T1, Spike RBD/ACE2 (19–615) interaction (Severe acute respiratory syndrome coronavirus 2, UniProt P0DTC2); experiment: cell-based; format: cell-based, SARS-CoV-2
T1 construct: S protein RBD (aa residues 319–541) of SARS-CoV-2; expressed in transfected cells; host or cells: HEK293T

[2] = system: SARS-CoV-2; experiment: microbe, parasite or virus in culture; format: cell-based
[3] = system: SARS-CoV-2; format: cell-based
[4] = system: E. coli WP2 uvrA strain; experiment: Microbial mutagenicity assay (Ames test); settings: positive control
[5] = system: Vero E6 cells; experiment: MTT toxicity assay in Vero E6 cells; format: cell-based; settings: 48 h
Method: Chemical compounds were dissolved and serially diluted in DMSO. Their cytotoxicity was assessed using an MTT assay. Briefly, HEK293T, SH-SY5Y or Vero E6 cells were cultured in 96-well plates (4 × 10^4 cells/well) at 37 °C in a 5% CO2 atmosphere. Cells were treated for 48 h with varying concentrations of the compounds (100–0.1 μM) or solvent. […] Treated cells were incubated for 4 h with […] MTT (Applichem). After incubation, the MTT-containing medium was removed and formazan crystals were dissolved in DMSO. The optical density (OD) of formazan solution at 570 and 630 nm was measured in a SPARK plate reader (Tecan).

[6] = system: SARS-CoV-2 pseudovirus; experiment: microbe, parasite or virus in culture; format: cell-based; settings: Severe acute respiratory syndrome-related coronavirus, SH-SY5Y, read-out: IC50, inhibition of pseudovirus cell entry
[7] = HEK-293T, 48 h, read-out: suppression of Spike RBD/ACE2 (19–615) interaction

COc1cccc2c1ncn2Cc1ccc(-c2ccccc2)cc1 [CKP-27, 1-([1,1′-Biphenyl]-4-ylmethyl)-4-methoxy-1H-benzo[d]imidazole]
inhibition at 25 µM [1, 7]: 72% | effect on the cytopathic effect of SARS-CoV-2 (in words) [2]: consistently reduced the cytopathic effect | effect on viral load in the cell culture supernatant (in words) [3]: reduced the viral load | melting point: 150 to 151 °C

Cc1ccc[n+](CC(=O)c2ccc3c(c2)Cc2ccccc2-3)c1C.[Br-] [compound 5315079, 1-[2-(9H-fluoren-2-yl)-2-oxoethyl]-2,3-dimethylpyridinium bromide]
concentration-dependent suppression of Spike RBD/ACE2 (19–615) interaction [1]: suppressed Spike RBD/ACE2 (19–615) interaction in a concentration-dependent manner | effect on Spike RBD/ACE2 (19–615) interaction [1]: suppressed the interaction

Oc1cccc2c1ncn2Cc1ccc(-c2ccccc2)cc1 [CKP-30, 1-([1,1′-Biphenyl]-4-ylmethyl)-1H-benzo[d]imidazol-4-ol]
activity on Spike RBD/ACE2 (19–615) interaction (in words) [1]: none of the 4-hydroxy congeners of 28 and 29, compounds 31 (CKP-26) and 32 (CKP-30) maintained inhibitory activity | melting point: 258 to 259 °C

O=[N+]([O-])c1cccc2c1ncn2Cc1ccc2ccccc2c1 [CKP-20, 1-(Naphthalen-2-ylmethyl)-4-nitro-1H-benzo[d]imidazole]
activity on Spike RBD/ACE2 (19–615) interaction (in words) [1]: showed activity | inhibition at 50 µM [1, 7]: 51%

COc1ccc(-c2ccccc2)cc1NCc1ccc2c(c1)OCO2 [compound 5465521, (1,3-benzodioxol-5-ylmethyl)(4-methoxy-3-biphenylyl)amine]
concentration-dependent suppression of Spike RBD/ACE2 (19–615) interaction [1]: suppressed Spike RBD/ACE2 (19–615) interaction in a concentration-dependent manner | effect on Spike RBD/ACE2 (19–615) interaction [1]: suppressed the interaction

COc1cccc2c1[n+](C/C=C/c1ccc([N+](=O)[O-])cc1)cn2Cc1ccc2ccccc2c1.[Br-] [CKP-42, (E)-4-Methoxy-1-(naphthalen-2-ylmethyl)-3-(3-(4-nitrophenyl)allyl)-1H-benzo[d]imidazol-3-ium Bromide]
activity on Spike RBD/ACE2 (19–615) interaction (in words) [1]: active | inhibition at 10 µM [1, 7]: 74% | melting point: 227 to 228 °C

COc1cccc2c1[n+](C/C=C/c1ccc(Cl)cc1)cn2Cc1ccc2ccccc2c1.[Br-]
melting point: 228 to 229 °C

Nc1ccc2cc3ccccc3cc2c1 [2-aminoanthracene, reference compound]
mean revertants ([4]; 10 μg/plate, +S9): >300

Clc1ccc(/C=C/C[n+]2cn(Cc3ccc4ccccc4c3)c3ccccc32)cc1.[Br-] [CKP-32, (E)-3-(3-(4-Chlorophenyl)allyl)-1-(naphthalen-2-ylmethyl)-1H-benzo[d]imidazol-3-ium Bromide]
inhibition at 10 µM [1, 7]: 70% | toxicity against Vero E6 cells [5]: toxic | melting point: 166 to 167 °C

O=[N+]([O-])c1ccc(/C=C/C[n+]2cn(Cc3ccc(-c4ccccc4)cc3)c3ccccc32)cc1.[Br-]
melting point: 236 to 238 °C (dec.)

c1ccc2cc(Cn3cnc4ccccc43)ccc2c1 [CKP-22, 1-(Naphthalen-2-ylmethyl)-1H-benzo[d]imidazole]
IC50 [1]: 55 µM | concentration-dependent suppression of Spike RBD/ACE2 (19–615) interaction [1]: suppressed Spike RBD/ACE2 (19–615) interaction in a concentration-dependent manner | effect on Spike RBD/ACE2 (19–615) interaction [1]: suppressed the interaction | inhibition at 50 µM [1, 7]: 81% | IC50 [6]: 49 ± 2.5 µM | prevention of infection from the original SARS-CoV-2 in vitro [2]: strongly prevented infection | reduction of the cytopathic effect (CPE) of the virus [2]: approximately 90% | reduction of SARS-CoV-2 levels (viral load) in cell culture supernatant [3]: 68% | melting point: 139 to 140 °C

COc1cccc2c1[n+](C/C=C/c1ccc([N+](=O)[O-])cc1)cn2Cc1ccc(-c2ccccc2)cc1.[Br-] [CKP-40, (E)-1-([1,1′-Biphenyl]-4-ylmethyl)-4-methoxy-3-(3-(4-nitrophenyl)allyl)-1H-benzo[d]imidazol-3-ium Bromide]
activity on Spike RBD/ACE2 (19–615) interaction (in words) [1]: active | inhibition at 25 µM [1, 7]: 14% | effect on the cytopathic effect of SARS-CoV-2 (in words) [2]: not protective against SARS-CoV-2 | melting point: 203 to 204 °C

O=C(C=Cc1ccc(NC(=O)c2ccccc2-c2ccccc2C(=O)O)cc1)c1ccccc1 [compound 5755483, 2'-({[4-(3-oxo-3-phenyl-1-propen-1-yl)phenyl]amino}carbonyl)-2-biphenylcarboxylic acid]
effect on Spike RBD/ACE2 (19–615) interaction [1]: suppressed the interaction

COc1ccc(Cn2cnc3ccccc32)cc1OC [CKP-24, 1-(3,4-Dimethoxybenzyl)-1H-benzo[d]imidazole]
melting point: 131 to 132 °C

c1ccc(-c2ccc(Cn3cnc4ccccc43)cc2)cc1 [CKP-23, 1-([1,1′-Biphenyl]-4-ylmethyl)-1H-benzo[d]imidazole]
melting point: 184 to 186 °C

O=C1CC(c2ccc3ccccc3c2)c2ccc3ccccc3c2N1 (stereo not shown) [compound 5979742, 4-(2-naphthyl)-3,4-dihydrobenzo[h]quinolin-2(1H)-one]
effect on Spike RBD/ACE2 (19–615) interaction [1]: suppressed the interaction

O=C(c1ccc(NC(=O)C(c2ccccc2)c2ccccc2)cc1)c1ccc(C(=O)O)c(C(=O)O)c1 [compound 6048589, 4-{4-[(diphenylacetyl)amino]benzoyl}phthalic acid]
effect on Spike RBD/ACE2 (19–615) interaction [1]: suppressed the interaction

COc1cccc2c1[n+](C/C=C/c1ccc(Cl)cc1)cn2Cc1ccc(-c2ccccc2)cc1.[Br-]
melting point: 205 to 206 °C

O=C(O)c1ccc2c(c1)C(=O)N(c1ccc(-c3nnc(-c4ccccc4)o3)cc1)C2=O [compound 5733393, 1,3-dioxo-2-[4-(5-phenyl-1,3,4-oxadiazol-2-yl)phenyl]-5-isoindolinecarboxylic acid]
effect on Spike RBD/ACE2 (19–615) interaction [1]: suppressed the interaction

Oc1ccc(Cn2cnc3ccccc32)cc1O [CKP-35, 4-((1H-Benzo[d]imidazol-1-yl)methyl)benzene-1,2-diol]
melting point: 188 to 190 °C (dec.)

Nc1cccc2c1ncn2Cc1ccc2cccnc2c1 [CKP-49, 1-(Quinolin-7-ylmethyl)-1H-benzo[d]imidazol-4-amine]
inhibition at 50 µM [1, 7]: 30% | effect on the cytopathic effect of SARS-CoV-2 (in words) [2]: consistently reduced the cytopathic effect | effect on viral load in the cell culture supernatant (in words) [3]: reduced the viral load

COc1ccc(Cn2c[n+](C/C=C/c3ccc([N+](=O)[O-])cc3)c3ccccc32)cc1OC.[Br-]
melting point: 146 to 148 °C (dec.)

Oc1cccc2c1ncn2Cc1ccc2ccccc2c1 [CKP-26, 1-(Naphthalen-2-ylmethyl)-1H-benzo[d]imidazol-4-ol]
activity on Spike RBD/ACE2 (19–615) interaction (in words) [1]: none of the 4-hydroxy congeners of 28 and 29, compounds 31 (CKP-26) and 32 (CKP-30) maintained inhibitory activity

O=[N+]([O-])c1ccc(/C=C/C[n+]2cn(Cc3ccc4ccccc4c3)c3ccccc32)cc1.[Br-]
melting point: 189 to 191 °C

O=C(c1ccc(-c2ccccc2)cc1)n1cnc2ccccc21 [compound 5260662, 1-(4-biphenylylcarbonyl)-1H-benzimidazole]
concentration-dependent suppression of Spike RBD/ACE2 (19–615) interaction [1]: suppressed Spike RBD/ACE2 (19–615) interaction in a concentration-dependent manner | effect on Spike RBD/ACE2 (19–615) interaction [1]: suppressed the interaction

c1cnc2cc(Cn3cnc4ccccc43)ccc2c1 [CKP-36, 7-((1H-Benzo[d]imidazol-1-yl)methyl)quinoline]
melting point: 166 to 168 °C (dec.)

O=c1c(Oc2ccc(-c3ccccc3)cc2)coc2cc(O)ccc12 [compound 6659989, 3-(4-biphenylyloxy)-7-hydroxy-4H-chromen-4-one]
concentration-dependent suppression of Spike RBD/ACE2 (19–615) interaction [1]: suppressed Spike RBD/ACE2 (19–615) interaction in a concentration-dependent manner | effect on Spike RBD/ACE2 (19–615) interaction [1]: suppressed the interaction | IC50 [6]: 3.2 ± 0.2 µM

COc1cccc2c1ncn2Cc1ccc2cccnc2c1 [CKP-44, 7-((4-Methoxy-1H-benzo[d]imidazol-1-yl)methyl)quinoline]
activity on Spike RBD/ACE2 (19–615) interaction (in words) [1]: did not exhibit any effect | melting point: 161 to 162 °C

Nc1nc(-c2ccccc2)c(-c2ccc(-c3ccccc3)cc2)s1 [compound 6954709, 5-(4-biphenylyl)-4-phenyl-1,3-thiazol-2-amine]
effect on Spike RBD/ACE2 (19–615) interaction [1]: suppressed the interaction

O=C(O)c1ccccc1C(=O)Nc1ccc(Oc2ccc3ccccc3c2)cc1 [compound 6052953, 2-({[4-(2-naphthyloxy)phenyl]amino}carbonyl)benzoic acid]
concentration-dependent suppression of Spike RBD/ACE2 (19–615) interaction [1]: suppressed Spike RBD/ACE2 (19–615) interaction in a concentration-dependent manner | effect on Spike RBD/ACE2 (19–615) interaction [1]: suppressed the interaction

COS(C)(=O)=O [methyl methanesulfonate, reference compound]
mean revertants ([4]; 2.5 μL/plate, –S9): >300

O=[N+]([O-])c1cccc2c1ncn2Cc1ccc2cccnc2c1 [CKP-48, 7-((4-Nitro-1H-benzo[d]imidazol-1-yl)methyl)quinoline]
activity on Spike RBD/ACE2 (19–615) interaction (in words) [1]: showed activity | inhibition at 50 µM [1, 7]: 36%

c1ccc2cc(CCn3cnc4ccccc43)ccc2c1 [CKP-46, 1-(2-(Naphthalen-2-yl)ethyl)-1H-benzo[d]imidazole]
activity on Spike RBD/ACE2 (19–615) interaction (in words) [1]: activity was retained | inhibition at 1 µM [1, 7]: 20%
